# Where “and” joins values, the source holds several entries; their conditions need not be identical. Equal values may be shown once.
# System: 233499-124-R-J3-PDC complex spheroid growth
# Assay: Anticancer human tumor 233499-124-R-J3-PDC patient-derived colon adenocarcinoma cell line growth inhibition [AhR]
# Conditions: for viability, T/C: stronger effect = lower value
# Outline: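 Complex tumor spheroids co-cultured with HUVEC and human MSC stroma; AhR antagonists tested in combination with standard-of-care and investigational agents. Top concentration at or near clinical Cmax (else 10 microM), half-log dilutions; growth expressed as percent test/control.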
# [1] = curve of first compound, second compound 0.1 µM
# [2] = curve of first compound, second compound 0.316 µM
# [3] = curve of first compound, second compound 1 µM
# [4] = curve of first compound, second compound 3.16 µM
# [5] = curve of first compound, second compound 10 µM
# [6] = second compound 0.1 µM, first compound 0.0316 µM
# [7] = second compound 0.1 µM, first compound 0.1 µM
# [8] = second compound 0.1 µM, first compound 0.316 µM
# [9] = second compound 0.1 µM, first compound 1 µM
# [10] = second compound 0.1 µM, first compound 3.16 µM
# [11] = second compound 0.1 µM, first compound 10 µM
# [12] = second compound 0.316 µM, first compound 0.0316 µM
# [13] = second compound 0.316 µM, first compound 0.1 µM
# [14] = second compound 0.316 µM, first compound 0.316 µM
# [15] = second compound 0.316 µM, first compound 1 µM
# [16] = second compound 0.316 µM, first compound 3.16 µM
# [17] = second compound 0.316 µM, first compound 10 µM
# [18] = second compound 1 µM, first compound 0.0316 µM
# [19] = second compound 1 µM, first compound 0.1 µM
# [20] = second compound 1 µM, first compound 0.316 µM
# [21] = second compound 1 µM, first compound 1 µM
# [22] = second compound 1 µM, first compound 3.16 µM
# [23] = second compound 1 µM, first compound 10 µM
# [24] = second compound 3.16 µM, first compound 0.0316 µM
# [25] = second compound 3.16 µM, first compound 0.1 µM
# [26] = second compound 3.16 µM, first compound 0.316 µM
# [27] = second compound 3.16 µM, first compound 1 µM
# [28] = second compound 3.16 µM, first compound 3.16 µM
# [29] = second compound 3.16 µM, first compound 10 µM
# [30] = second compound 10 µM, first compound 0.0316 µM
# [31] = second compound 10 µM, first compound 0.1 µM
# [32] = second compound 10 µM, first compound 0.316 µM
# [33] = second compound 10 µM, first compound 1 µM
# [34] = second compound 10 µM, first compound 3.16 µM
# [35] = second compound 10 µM, first compound 10 µM
# 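Also: spheroids exposed to agents for seven days before reading.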
smiles,measurement,setting,value
CC(C)c1c(-c2ccccc2)nc2c(C#N)c[nH]n2c1=O + Cc1cncc(-c2nc(NCCc3c[nH]c4ccccc34)c3ncn(C(C)C)c3n2)c1,IC50,[1],> 10 µM
same,IC50,[2],> 10 µM
same,IC50,[3],> 10 µM
same,IC50,[4],> 10 µM
same,IC50,[5],< 0.0316 µM
same,"viability, T/C",[6],88.8%
same,"viability, T/C",[7],100%
same,"viability, T/C",[8],96.5%
same,"viability, T/C",[9],108%
same,"viability, T/C",[10],101%
same,"viability, T/C",[11],108%
same,"viability, T/C",[12],89.9%
same,"viability, T/C",[13],88.9%
same,"viability, T/C",[14],87.4%
same,"viability, T/C",[15],86.3%
same,"viability, T/C",[16],86.2%
same,"viability, T/C",[17],85.2%
same,"viability, T/C",[18],84.5%
same,"viability, T/C",[19],79.2%
same,"viability, T/C",[20],71.5%
same,"viability, T/C",[21],73.8%
same,"viability, T/C",[22],79.2%
same,"viability, T/C",[23],84%
same,"viability, T/C",[24],72.5%
same,"viability, T/C",[25],86.5%
same,"viability, T/C",[26],74.6%
same,"viability, T/C",[27],60.9%
same,"viability, T/C",[28],73.3%
same,"viability, T/C",[29],77.2%
same,"viability, T/C",[30],1.69%
same,"viability, T/C",[31],2.34%
same,"viability, T/C",[32],4.08%
same,"viability, T/C",[33],2.26%
same,"viability, T/C",[34],2.36%
same,"viability, T/C",[35],2.85%
Nc1ncn(C2CC(O)C(CO)S2)c(=O)n1 (configuration not stated) + Cc1ccccc1N=Nc1ccc(NC(=O)c2ccnn2C)c(C)c1,IC50,[1],> 0.3 µM
same,IC50,[2],> 0.3 µM
same,IC50,[3],> 0.3 µM
same,IC50,[4],> 0.3 µM
same,IC50,[5],> 0.3 µM
same,"viability, T/C","second compound 0.1 µM, first compound 0.000949 µM",91.9%
same,"viability, T/C","second compound 0.1 µM, first compound 0.003 µM",103%
same,"viability, T/C","second compound 0.1 µM, first compound 0.00949 µM",87.7%
same,"viability, T/C","second compound 0.1 µM, first compound 0.03 µM",108%
same,"viability, T/C","second compound 0.1 µM, first compound 0.0949 µM",109%
same,"viability, T/C","second compound 0.1 µM, first compound 0.3 µM",111%
same,"viability, T/C","second compound 0.316 µM, first compound 0.000949 µM",99.1%
same,"viability, T/C","second compound 0.316 µM, first compound 0.003 µM",114%
same,"viability, T/C","second compound 0.316 µM, first compound 0.00949 µM",96.3%
same,"viability, T/C","second compound 0.316 µM, first compound 0.03 µM",107%
same,"viability, T/C","second compound 0.316 µM, first compound 0.0949 µM",105%
same,"viability, T/C","second compound 0.316 µM, first compound 0.3 µM",84.7%
same,"viability, T/C","second compound 1 µM, first compound 0.000949 µM",110%
same,"viability, T/C","second compound 1 µM, first compound 0.003 µM",114%
same,"viability, T/C","second compound 1 µM, first compound 0.00949 µM",95%
same,"viability, T/C","second compound 1 µM, first compound 0.03 µM",114%
same,"viability, T/C","second compound 1 µM, first compound 0.0949 µM",116%
same,"viability, T/C","second compound 1 µM, first compound 0.3 µM",101%
same,"viability, T/C","second compound 3.16 µM, first compound 0.000949 µM",101%
same,"viability, T/C","second compound 3.16 µM, first compound 0.003 µM",108%
same,"viability, T/C","second compound 3.16 µM, first compound 0.00949 µM",107%
same,"viability, T/C","second compound 3.16 µM, first compound 0.03 µM",107%
same,"viability, T/C","second compound 3.16 µM, first compound 0.0949 µM",109%
same,"viability, T/C","second compound 3.16 µM, first compound 0.3 µM",107%
same,"viability, T/C","second compound 10 µM, first compound 0.000949 µM",104%
same,"viability, T/C","second compound 10 µM, first compound 0.003 µM",99.3%
same,"viability, T/C","second compound 10 µM, first compound 0.00949 µM",107%
same,"viability, T/C","second compound 10 µM, first compound 0.03 µM",113%
same,"viability, T/C","second compound 10 µM, first compound 0.0949 µM",94.8%
same,"viability, T/C","second compound 10 µM, first compound 0.3 µM",99.3%
COc1ccc([C@@H](O)c2cc(-c3ncnc4cc(N5CCOCC5)ccc34)c(F)cc2Cl)nn1,"viability, T/C",compound 0.0316 µM,99.4% and 94% and 95.8%
same,"viability, T/C",compound 0.1 µM,95.7% and 89% and 102%
same,"viability, T/C",compound 0.316 µM,94.3% and 102% and 98.5%
same,"viability, T/C",compound 1 µM,99.9% and 87% and 104%
same,"viability, T/C",compound 3.16 µM,92.7% and 89.7% and 82.3%
same,"viability, T/C",compound 10 µM,98.3% and 91% and 81.9%
same,IC50,curve of compound,> 10 µM
COc1ccc([C@@H](O)c2cc(-c3ncnc4cc(N5CCOCC5)ccc34)c(F)cc2Cl)nn1 + Cc1ccccc1N=Nc1ccc(NC(=O)c2ccnn2C)c(C)c1,IC50,[1],> 10 µM
same,IC50,[2],> 10 µM
same,IC50,[3],> 10 µM
same,IC50,[4],> 10 µM
same,IC50,[5],> 10 µM
same,"viability, T/C",[6],90.3%
same,"viability, T/C",[7],98.9%
same,"viability, T/C",[8],96.8%
same,"viability, T/C",[9],104%
same,"viability, T/C",[10],101%
same,"viability, T/C",[11],89.2%
same,"viability, T/C",[12],97.3%
same,"viability, T/C",[13],101%
same,"viability, T/C",[14],86.3%
same,"viability, T/C",[15],102%
same,"viability, T/C",[16],92%
same,"viability, T/C",[17],63.6%
same,"viability, T/C",[18],104%
same,"viability, T/C",[19],98.4%
same,"viability, T/C",[20],102%
same,"viability, T/C",[21],95.7%
same,"viability, T/C",[22],85.5%
same,"viability, T/C",[23],90.2%
same,"viability, T/C",[24],99.5%
same,"viability, T/C",[25],101%
same,"viability, T/C",[26],93.5%
same,"viability, T/C",[27],97.8%
same,"viability, T/C",[28],92.2%
same,"viability, T/C",[29],76.3%
same,"viability, T/C",[30],90.5%
same,"viability, T/C",[31],90.3%
same,"viability, T/C",[32],85.6%
same,"viability, T/C",[33],94.6%
same,"viability, T/C",[34],91.4%
same,"viability, T/C",[35],60.6%

# Reference: PubChem BioAssay AID1918993 (Molecular Pharmacology Branch, DTP, NCI, 2023)
